Reference: ChEMBL document CHEMBL1201862, “PubChem BioAssay data set” (2004)
Active and inactive are the calls of the source.

Tests used:
[1] = target: Serine/threonine-protein kinase D2 (Homo sapiens, UniProt Q9BZL6); type: functional;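 also: measured against PRKD2 as one member of a kinome-wide kinase profiling panel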
[2] = target: Serine/threonine-protein kinase MRCK alpha (Homo sapiens, UniProt Q5VT25); type: functional
[3] = target: Interleukin-1 receptor-associated kinase 4 (Homo sapiens, UniProt Q9NWZ3); type: functional
[4] = target: Serine/threonine-protein kinase PAK 1 (Homo sapiens, UniProt Q13153); type: functional
[5] = target: LIM domain kinase 1 (Homo sapiens, UniProt P53667); test: Navigating the Kinome. Panel member name: LIMK1; type: functional
[6] = target: Mitogen-activated protein kinase 9 (Homo sapiens, UniProt P45984); type: functional;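 also: value from a kinome panel profiling assay, MAPK9 panel entry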
[7] = target: MAP kinase-activated protein kinase 3 (Homo sapiens, UniProt Q16644); type: functional;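 also: value comes from a kinome-wide profiling panel in which MAPKAPK3 is one of the panel members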
[8] = target: Serine/threonine-protein kinase pim-1 (Homo sapiens, UniProt P11309); type: functional
[9] = target: T1, Serine/threonine-protein kinase Nek2 (Homo sapiens, UniProt P51955); type: functional
T1 sequence (P51955 whole entry): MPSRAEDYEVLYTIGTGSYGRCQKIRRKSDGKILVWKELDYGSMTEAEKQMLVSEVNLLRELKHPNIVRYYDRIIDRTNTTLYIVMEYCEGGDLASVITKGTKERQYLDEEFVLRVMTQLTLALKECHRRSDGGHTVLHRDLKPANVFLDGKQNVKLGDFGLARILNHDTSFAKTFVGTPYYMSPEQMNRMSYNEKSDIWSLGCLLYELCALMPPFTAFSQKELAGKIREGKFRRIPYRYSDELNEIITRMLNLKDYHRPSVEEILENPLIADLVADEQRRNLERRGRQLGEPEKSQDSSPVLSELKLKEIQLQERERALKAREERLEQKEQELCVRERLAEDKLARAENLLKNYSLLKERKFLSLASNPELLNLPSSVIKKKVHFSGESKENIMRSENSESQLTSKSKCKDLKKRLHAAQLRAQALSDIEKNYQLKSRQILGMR

[10] = target: Cyclin-dependent kinase 5 (Homo sapiens, UniProt Q00535); type: functional;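 also: CDK5 measured as one member of a kinase profiling panel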
[11] = target: RAC-gamma serine/threonine-protein kinase (Homo sapiens, UniProt Q9Y243); type: functional
[12] = target: Rho-associated protein kinase 1 (Homo sapiens, UniProt Q13464); type: functional;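 also: measured within a broad kinome-wide panel profiling many kinases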
[13] = target: Cyclin-dependent kinase 1 (Homo sapiens, UniProt P06493); type: functional;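 also: Kinome-wide panel profiling, with the target listed as panel member CDC2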
[14] = target: Dual specificity tyrosine-phosphorylation-regulated kinase 1A (Homo sapiens, UniProt Q13627); type: functional;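 also: measured against DYRK1A as one member of a broad kinome profiling panel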
[15] = target: Casein kinase II subunit alpha (Homo sapiens, UniProt P68400); type: functional
[16] = target: MAP kinase-activated protein kinase 2 (Homo sapiens, UniProt P49137); type: functional;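 also: measured as one member of a kinome-wide kinase panel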
[17] = target: Ribosomal protein S6 kinase alpha-3 (Homo sapiens, UniProt P51812); type: functional;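 also: measured within a kinome-wide profiling panel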
[18] = target: Serine/threonine-protein kinase PLK3 (Homo sapiens, UniProt Q9H4B4); type: functional
[19] = target: X-box-binding protein 1 (Homo sapiens, UniProt P17861); type: functional, Cricetulus griseus;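 also: confirmatory dose-response counter-screen serving a CHOP assay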
[20] = target: 26S proteasome non-ATPase regulatory subunit 14 (Homo sapiens, UniProt O00487); test: inhibition of proteasome subunit RPN11 – biochemical, fluorescence polarization, uHTS hits, confirmation (AID 602368); type: functional
[21] = target: Prothrombin (Bos taurus, UniProt P00735); test: thrombin protease inhibitors – biochemical, fluorescence polarization, uHTS hits, dose response (AID 602369); type: functional
[22] = target: 72 kDa type IV collagenase (Homo sapiens, UniProt P08253); test: Dose Response validation of uHTS RPN11 inhibitor hits using a MMP-2 Fluorescence assay.; type: functional
[23] = target: Serine/threonine-protein phosphatase (Homo sapiens, UniProt Q9BPW0); test: Counterscreen for inhibitors of PP1: fluorescence-based biochemical high throughput dose response assay to identify inhibitors of Protein Phosphatase 5 (PP5). [Related pubchem assays: 2034 (Summary (PP5 inhibitors)), 1987 (PP5 inhibitors in singlate), 2235 (PP1 inhibitors in singlate)]
[24] = target: Serine/threonine-protein phosphatase PP1-alpha catalytic subunit (Homo sapiens, UniProt P62136); test: inhibition of protein phosphatase 1 activity – biochemical, fluorescence, dose response (AID 2403);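 also: phosphatase turnover of OMFP into fluorescent 3-O-methylfluorescein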
[25] = target: Intestinal-type alkaline phosphatase (Mus musculus, UniProt P24822); test: PubChem AID 488785; type: functional
[26] = target: Intestinal-type alkaline phosphatase (Homo sapiens, UniProt P09923); test: inhibition of human intestinal alkaline phosphatase – biochemical, dose response (AID 488876); type: functional
[27] = target: Beta Lactamase (Pseudomonas aeruginosa, UniProt Q932Y6); test: BLA reporter interference, concentration series – BLA reporter cells, FRET fluorescence, artefact control for TLR9-MyD88 binding inhibitor project, dose response (AID 588341); type: cell-based;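 also: cell based assay in CHO-K1 cells stably expressing beta-lactamase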
[28] = tested on: CHO; test: CHO cell viability loss, potency – luminescence, cytotoxicity control for TLR9-MyD88 binding inhibitor project, dose response (AID 588339); type: functional, cell-based, hamster; details: Cricetulus griseus;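 also: CHO cells stably coexpressing TLR9 and MyD88 fusions from primary screen; compound exposure lasted 48 hours before viability readout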
[29] = target: T2, Alkaline phosphatase, tissue-nonspecific isozyme (Homo sapiens, UniProt P05186); test: TNAP enzyme inhibition by screening hits, dose response, selectivity assay for mouse IAP inhibitor project, biochemical, human TNAP, uHTS hits (AID 488906); type: functional
T2 sequence (P05186 whole entry): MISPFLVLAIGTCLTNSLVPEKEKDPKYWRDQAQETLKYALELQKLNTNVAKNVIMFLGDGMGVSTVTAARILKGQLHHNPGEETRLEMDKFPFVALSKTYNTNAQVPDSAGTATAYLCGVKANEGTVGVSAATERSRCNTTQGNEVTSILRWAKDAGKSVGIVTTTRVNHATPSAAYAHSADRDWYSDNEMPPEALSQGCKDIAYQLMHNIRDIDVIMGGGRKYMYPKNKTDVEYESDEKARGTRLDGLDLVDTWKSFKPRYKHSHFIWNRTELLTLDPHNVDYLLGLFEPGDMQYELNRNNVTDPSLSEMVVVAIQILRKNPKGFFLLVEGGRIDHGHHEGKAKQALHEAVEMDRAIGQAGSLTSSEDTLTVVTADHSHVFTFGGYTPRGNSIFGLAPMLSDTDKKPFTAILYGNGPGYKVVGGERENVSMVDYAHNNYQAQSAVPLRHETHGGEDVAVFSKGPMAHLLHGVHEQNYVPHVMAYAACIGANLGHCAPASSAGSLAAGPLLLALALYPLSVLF

[30] = target: T3, Protein RecA (Mycobacterium tuberculosis, UniProt P9WHJ3); test: Fluorescence Cell-Free Homogeneous Dose Retest to Identify Inhibitors of RecA-Intein Splicing Activity. [Related pubchem assays (depositor defined):AID2097, AID2223, AID489010, AID492950]; type: functional
T3 sequence (P9WHJ3 whole entry): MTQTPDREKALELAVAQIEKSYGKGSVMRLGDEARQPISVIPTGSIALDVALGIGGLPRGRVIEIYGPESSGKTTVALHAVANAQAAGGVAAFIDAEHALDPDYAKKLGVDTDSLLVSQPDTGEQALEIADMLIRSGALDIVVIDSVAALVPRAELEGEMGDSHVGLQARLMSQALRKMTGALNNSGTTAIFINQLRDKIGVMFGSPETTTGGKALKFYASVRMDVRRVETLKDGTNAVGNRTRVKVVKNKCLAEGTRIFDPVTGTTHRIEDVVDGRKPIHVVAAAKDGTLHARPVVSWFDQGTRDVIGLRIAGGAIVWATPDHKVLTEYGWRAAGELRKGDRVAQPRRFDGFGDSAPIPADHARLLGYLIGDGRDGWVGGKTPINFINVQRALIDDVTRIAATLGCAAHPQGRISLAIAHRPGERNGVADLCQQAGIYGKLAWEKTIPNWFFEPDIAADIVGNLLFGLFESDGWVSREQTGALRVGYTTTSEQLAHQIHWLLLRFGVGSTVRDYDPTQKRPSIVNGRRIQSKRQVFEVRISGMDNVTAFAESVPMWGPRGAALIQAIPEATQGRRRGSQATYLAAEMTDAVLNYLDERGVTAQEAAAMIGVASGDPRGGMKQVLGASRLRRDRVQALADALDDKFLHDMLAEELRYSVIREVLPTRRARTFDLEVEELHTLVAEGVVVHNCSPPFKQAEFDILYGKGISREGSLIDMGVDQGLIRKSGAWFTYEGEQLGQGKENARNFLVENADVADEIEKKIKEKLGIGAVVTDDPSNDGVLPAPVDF

[31] = target: DNA (cytosine-5)-methyltransferase 1 (Homo sapiens, UniProt P26358); test: inhibition of DNA methylation by DNMT1 – biochemical, fluorescent molecular beacon, confirmation (AID 602386); type: functional
[32] = target: Phospholipase A2 (Homo sapiens, UniProt P04054); type: functional;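 also: confirmatory dose-response counterscreen on phospholipase A2, testing hits that came from an ultra-high-throughput screen for ATG4B inhibitors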
[33] = target: Genome polyprotein (dengue virus type 2, UniProt P29990); test: flavivirus cap methylation enzyme inhibition – biochemical, confirmation dose response, primary screen (AID 588689); type: functional
[34] = target: T4, Replicative DNA helicase DnaB (Mycobacterium tuberculosis, UniProt P9WMR3); test: DnaB intein splicing inhibitors, dose response, biochemical, cell-free fluorescence (AID 449749); type: functional
T4 sequence (P9WMR3 whole entry): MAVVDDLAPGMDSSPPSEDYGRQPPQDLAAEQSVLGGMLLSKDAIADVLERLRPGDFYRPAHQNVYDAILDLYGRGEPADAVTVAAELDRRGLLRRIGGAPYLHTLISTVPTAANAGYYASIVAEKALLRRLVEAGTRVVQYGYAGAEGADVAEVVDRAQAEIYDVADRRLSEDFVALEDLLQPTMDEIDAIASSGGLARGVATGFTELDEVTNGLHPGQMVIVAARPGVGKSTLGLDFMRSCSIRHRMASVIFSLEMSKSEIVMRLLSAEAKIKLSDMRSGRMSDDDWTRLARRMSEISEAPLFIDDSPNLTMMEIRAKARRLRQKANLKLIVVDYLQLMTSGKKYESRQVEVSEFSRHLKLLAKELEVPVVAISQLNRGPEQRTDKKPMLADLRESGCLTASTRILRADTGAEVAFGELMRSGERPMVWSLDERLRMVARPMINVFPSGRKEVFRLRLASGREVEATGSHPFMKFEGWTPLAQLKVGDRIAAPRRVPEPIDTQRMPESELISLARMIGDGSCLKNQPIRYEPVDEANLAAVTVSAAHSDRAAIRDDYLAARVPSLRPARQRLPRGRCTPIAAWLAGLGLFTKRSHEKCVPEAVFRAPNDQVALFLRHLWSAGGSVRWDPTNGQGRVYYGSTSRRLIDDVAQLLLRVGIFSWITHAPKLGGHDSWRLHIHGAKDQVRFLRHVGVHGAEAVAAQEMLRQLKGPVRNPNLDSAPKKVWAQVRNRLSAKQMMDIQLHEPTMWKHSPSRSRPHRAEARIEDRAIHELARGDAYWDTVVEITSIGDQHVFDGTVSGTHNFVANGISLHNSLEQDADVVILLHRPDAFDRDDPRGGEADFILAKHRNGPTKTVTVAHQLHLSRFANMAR

[35] = target: Cysteine protease ATG4B (Homo sapiens, UniProt Q9Y4P1); type: functional;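 also: Fluorescence-based dose-response confirmation assay measuring inhibition of ATG4B activity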

Sequence of Intestinal-type alkaline phosphatase (Homo sapiens, UniProt P09923) (P09923 whole entry): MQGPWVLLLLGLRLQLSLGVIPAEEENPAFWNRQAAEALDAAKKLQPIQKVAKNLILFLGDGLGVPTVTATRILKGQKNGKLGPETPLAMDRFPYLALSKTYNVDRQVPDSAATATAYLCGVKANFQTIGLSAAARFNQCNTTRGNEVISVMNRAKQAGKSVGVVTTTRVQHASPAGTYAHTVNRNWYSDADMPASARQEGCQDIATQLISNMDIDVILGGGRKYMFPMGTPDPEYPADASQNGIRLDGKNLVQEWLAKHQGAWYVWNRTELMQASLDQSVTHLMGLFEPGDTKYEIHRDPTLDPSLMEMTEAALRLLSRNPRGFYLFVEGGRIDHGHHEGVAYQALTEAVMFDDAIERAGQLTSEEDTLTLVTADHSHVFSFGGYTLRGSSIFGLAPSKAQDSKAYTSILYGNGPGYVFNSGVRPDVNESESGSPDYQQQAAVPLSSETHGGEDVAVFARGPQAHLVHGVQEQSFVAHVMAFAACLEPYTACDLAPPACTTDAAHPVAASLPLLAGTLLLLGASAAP
Sequence of Ribosomal protein S6 kinase alpha-3 (P51812 whole entry): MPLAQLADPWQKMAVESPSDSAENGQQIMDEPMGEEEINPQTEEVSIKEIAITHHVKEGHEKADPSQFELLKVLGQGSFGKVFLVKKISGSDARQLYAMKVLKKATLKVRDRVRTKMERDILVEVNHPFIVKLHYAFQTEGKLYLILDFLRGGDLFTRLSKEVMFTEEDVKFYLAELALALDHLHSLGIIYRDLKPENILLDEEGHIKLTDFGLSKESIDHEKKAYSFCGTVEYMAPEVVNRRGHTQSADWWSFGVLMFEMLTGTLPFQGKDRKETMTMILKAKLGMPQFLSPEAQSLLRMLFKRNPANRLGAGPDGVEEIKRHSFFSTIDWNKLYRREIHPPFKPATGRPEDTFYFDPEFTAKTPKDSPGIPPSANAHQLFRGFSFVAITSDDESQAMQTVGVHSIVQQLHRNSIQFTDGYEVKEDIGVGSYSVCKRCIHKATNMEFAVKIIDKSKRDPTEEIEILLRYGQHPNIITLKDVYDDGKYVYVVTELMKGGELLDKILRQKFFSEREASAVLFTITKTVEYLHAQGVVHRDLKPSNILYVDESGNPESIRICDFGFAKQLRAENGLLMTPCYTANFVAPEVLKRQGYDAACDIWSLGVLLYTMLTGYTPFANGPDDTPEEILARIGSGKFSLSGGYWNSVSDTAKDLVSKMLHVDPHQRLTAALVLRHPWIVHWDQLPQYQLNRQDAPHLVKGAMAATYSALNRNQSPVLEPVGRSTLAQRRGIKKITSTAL
Sequence of 26S proteasome non-ATPase regulatory subunit 14 (O00487 whole entry): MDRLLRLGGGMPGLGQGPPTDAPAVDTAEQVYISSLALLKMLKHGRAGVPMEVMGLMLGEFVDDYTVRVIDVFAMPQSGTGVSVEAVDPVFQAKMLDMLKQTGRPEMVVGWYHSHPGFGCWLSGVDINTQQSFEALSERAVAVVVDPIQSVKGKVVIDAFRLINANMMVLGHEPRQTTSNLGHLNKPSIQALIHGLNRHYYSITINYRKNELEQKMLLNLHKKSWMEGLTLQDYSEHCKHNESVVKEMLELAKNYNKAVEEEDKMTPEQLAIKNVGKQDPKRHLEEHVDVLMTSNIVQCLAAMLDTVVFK
Sequence of Serine/threonine-protein kinase PLK3 (Q9H4B4 whole entry): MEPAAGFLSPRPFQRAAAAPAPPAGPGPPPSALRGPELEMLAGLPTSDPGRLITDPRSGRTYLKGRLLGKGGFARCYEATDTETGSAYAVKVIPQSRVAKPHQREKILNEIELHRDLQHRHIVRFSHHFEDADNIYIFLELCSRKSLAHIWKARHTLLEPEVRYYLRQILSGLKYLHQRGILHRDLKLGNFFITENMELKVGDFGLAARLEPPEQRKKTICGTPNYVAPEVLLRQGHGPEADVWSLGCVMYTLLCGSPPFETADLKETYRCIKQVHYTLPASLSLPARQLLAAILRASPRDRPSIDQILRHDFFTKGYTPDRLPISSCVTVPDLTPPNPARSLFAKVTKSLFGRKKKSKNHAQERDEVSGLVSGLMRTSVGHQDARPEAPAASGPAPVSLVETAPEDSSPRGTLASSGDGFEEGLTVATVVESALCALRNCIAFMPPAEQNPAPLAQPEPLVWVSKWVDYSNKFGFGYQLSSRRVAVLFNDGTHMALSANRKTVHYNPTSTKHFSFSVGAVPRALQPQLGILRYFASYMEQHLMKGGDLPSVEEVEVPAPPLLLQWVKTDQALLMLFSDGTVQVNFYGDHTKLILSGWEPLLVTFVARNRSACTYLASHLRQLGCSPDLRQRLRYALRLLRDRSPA
Sequence of Serine/threonine-protein kinase MRCK alpha (Q5VT25 whole entry): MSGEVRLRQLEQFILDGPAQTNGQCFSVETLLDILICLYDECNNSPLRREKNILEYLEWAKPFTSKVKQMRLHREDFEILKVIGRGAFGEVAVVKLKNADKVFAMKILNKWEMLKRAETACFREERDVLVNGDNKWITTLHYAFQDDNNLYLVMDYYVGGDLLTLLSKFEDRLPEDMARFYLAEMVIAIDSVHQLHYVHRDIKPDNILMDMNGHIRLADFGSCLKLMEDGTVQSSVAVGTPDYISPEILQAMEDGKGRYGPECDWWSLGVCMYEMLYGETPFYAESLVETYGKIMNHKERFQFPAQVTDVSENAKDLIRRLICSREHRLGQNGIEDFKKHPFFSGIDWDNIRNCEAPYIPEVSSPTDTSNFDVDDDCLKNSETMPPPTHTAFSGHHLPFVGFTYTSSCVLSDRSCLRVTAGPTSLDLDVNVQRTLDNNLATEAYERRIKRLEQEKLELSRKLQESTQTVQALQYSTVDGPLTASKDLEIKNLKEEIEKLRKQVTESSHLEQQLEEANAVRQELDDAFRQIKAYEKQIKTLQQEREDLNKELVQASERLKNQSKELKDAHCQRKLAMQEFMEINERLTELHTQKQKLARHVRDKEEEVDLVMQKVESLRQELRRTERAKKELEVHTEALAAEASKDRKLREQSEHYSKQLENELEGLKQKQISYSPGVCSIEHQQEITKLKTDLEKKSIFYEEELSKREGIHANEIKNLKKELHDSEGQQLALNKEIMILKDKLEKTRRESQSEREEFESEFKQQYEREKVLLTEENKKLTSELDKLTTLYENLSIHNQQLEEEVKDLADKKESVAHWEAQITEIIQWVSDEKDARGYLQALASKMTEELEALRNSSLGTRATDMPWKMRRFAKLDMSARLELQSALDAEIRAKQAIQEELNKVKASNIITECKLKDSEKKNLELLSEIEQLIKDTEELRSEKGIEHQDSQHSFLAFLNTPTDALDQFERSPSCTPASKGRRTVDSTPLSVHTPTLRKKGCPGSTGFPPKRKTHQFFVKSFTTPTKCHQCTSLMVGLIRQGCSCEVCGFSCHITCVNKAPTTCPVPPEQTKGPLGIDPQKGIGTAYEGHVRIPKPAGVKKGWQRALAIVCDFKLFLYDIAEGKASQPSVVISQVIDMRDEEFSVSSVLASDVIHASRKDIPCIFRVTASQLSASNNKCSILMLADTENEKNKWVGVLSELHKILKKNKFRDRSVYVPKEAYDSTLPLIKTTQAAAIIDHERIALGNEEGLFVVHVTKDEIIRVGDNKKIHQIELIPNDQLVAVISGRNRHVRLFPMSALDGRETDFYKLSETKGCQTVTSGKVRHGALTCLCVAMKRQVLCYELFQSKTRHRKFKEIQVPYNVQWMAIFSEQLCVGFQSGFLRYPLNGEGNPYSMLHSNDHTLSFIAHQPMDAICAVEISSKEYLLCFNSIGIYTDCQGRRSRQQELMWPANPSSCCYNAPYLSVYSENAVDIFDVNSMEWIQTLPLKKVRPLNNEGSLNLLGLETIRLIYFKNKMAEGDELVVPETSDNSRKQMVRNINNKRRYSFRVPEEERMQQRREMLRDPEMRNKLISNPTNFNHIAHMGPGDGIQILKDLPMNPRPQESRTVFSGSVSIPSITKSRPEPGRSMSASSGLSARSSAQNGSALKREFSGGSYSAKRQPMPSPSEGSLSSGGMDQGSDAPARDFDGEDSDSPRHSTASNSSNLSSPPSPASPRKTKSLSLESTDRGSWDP
Sequence of X-box-binding protein 1 (P17861 whole entry): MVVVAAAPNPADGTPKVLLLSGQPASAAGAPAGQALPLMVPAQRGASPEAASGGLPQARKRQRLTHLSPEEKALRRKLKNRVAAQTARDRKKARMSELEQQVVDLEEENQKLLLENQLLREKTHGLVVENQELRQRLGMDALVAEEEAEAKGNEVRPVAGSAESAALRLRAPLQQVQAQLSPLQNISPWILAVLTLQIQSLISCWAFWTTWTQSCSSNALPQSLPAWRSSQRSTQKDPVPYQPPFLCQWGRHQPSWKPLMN
Sequence of MAP kinase-activated protein kinase 3 (Q16644 whole entry): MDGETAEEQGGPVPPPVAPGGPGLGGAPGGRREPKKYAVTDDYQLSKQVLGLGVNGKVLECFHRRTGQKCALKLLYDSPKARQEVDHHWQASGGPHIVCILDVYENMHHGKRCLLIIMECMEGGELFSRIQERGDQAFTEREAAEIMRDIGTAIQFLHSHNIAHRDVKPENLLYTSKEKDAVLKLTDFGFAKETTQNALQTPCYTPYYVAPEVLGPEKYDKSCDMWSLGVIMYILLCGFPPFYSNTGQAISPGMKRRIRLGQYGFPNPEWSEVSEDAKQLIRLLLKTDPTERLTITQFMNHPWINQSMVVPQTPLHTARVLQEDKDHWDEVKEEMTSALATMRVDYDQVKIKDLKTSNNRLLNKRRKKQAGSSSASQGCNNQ
Sequence of Serine/threonine-protein kinase pim-1 (P11309 whole entry): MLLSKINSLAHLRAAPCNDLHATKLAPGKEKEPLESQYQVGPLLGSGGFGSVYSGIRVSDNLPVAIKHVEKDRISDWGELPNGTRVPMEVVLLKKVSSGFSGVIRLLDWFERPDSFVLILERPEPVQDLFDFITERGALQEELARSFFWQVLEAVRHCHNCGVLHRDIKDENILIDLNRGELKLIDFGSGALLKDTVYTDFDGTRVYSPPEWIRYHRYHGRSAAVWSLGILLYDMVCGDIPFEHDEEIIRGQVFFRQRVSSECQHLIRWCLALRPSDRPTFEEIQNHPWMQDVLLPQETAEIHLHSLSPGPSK

Compound: O=C(Nc1ccc(CO)cc1)c1cnn2c(-c3ccccc3)ccnc12
- Ki [1]: > 10 µM (inactive)
- Ki [2]: > 10 µM (inactive)
- Ki [3]: 2.51 µM (active)
- Ki [4]: > 10 µM (inactive)
- Ki [5]: > 10 µM (inactive)
- Ki [6]: 0.794 µM (active)
- Ki [7]: > 10 µM (inactive)
- Ki [8]: > 10 µM (inactive)
- Ki [9]: > 10 µM (inactive)
- Ki [10]: > 10 µM (inactive)
- Ki [11]: > 10 µM (inactive)
- Ki [12]: > 10 µM (inactive)
- Ki [13]: > 7.94 µM (inactive)
- Ki [14]: 1.26 µM (active)

Compound: Nc1ccc2[nH]c(=O)cnc2c1
- Ki [15]: 12.6 µM (active)
- Ki [16]: 10 µM (active)
- Ki [17]: 7.94 µM (active)
- Ki [18]: 6.31 µM (active)

Compound: O=C(N/N=C/c1ccccn1)c1cc(-c2ccc3ccccc3c2)[nH]n1
- Absolute IC50 (XBP1) [19]: 10 µM
- IC50 [20]: 13 µM (active)
- IC50 [21]: 28.7 µM (active)
- IC50 [22]: > 100 µM (inactive)
- IC50 [23]: > 67 µM (not active)
- IC50 [24]: 6.53 µM (active)

Compound: COc1cc(/C=C/C(O)=C/C(=O)/C=C/c2ccc(O)cc2)ccc1O [DEMETHOXYCURCUMIN]
- IC50 [25]: 8.38 µM (active)
- IC50 [26]: > 100 µM (inactive)
- IC50 [27]: 8.09 µM (active)
- IC50 [28]: 39.3 µM (inactive)
- IC50 [29]: > 100 µM (inactive)

Compound: C/C(=C/CCC(C)[C@H]1CC[C@@]2(C)C3=C(CC[C@]12C)[C@@]1(C)CCC(=O)C(C)(C)[C@@H]1CC3)C(=O)O (stereo not given in full)
- EC50 [30]: 5.88 µM (active)
- IC50 [31]: 5.93 µM (active)
- IC50 [32]: 2.04 µM (active)
- IC50 [33]: 47.9 µM (active)
- AC50 [34]: 2.12 µM (active)
- IC50 [35]: 5.45 µM (active)
